Experiments:
Test in all cases: Test A pre-/postemergence greenhouse herbicide test, visual injury rating 0-100
Type in all cases: in vivo
Settings in all cases: 1000 g ai/ha
[1] = system: velvetleaf (Abutilon theophrasti)
Text: (§1) Seeds of plant species selected from barnyardgrass (Echinochloa crus-galli), large (Lg) crabgrass (Digitaria sanguinalis), giant foxtail (Setaria faberii), morningglory (Ipomoea spp.), pigweed (Amaranthus retroflexus), velvetleaf (Abutilon theophrasti), wheat (Triticum aestivum), and corn (Zea mays) were planted into a blend of loam soil and sand and treated preemergence with a directed soil spray using test chemicals formulated in a non-phytotoxic solvent mixture which included a surfactant. At the same time these species were also treated with postemergence applications of test chemicals formulated in the same manner. Plants ranged in height from 2 to 10 cm and were in the one- to two-leaf stage for the postemergence treatment. Treated plants and untreated controls were maintained in a greenhouse for approximately 10 days, after which time all treated plants were compared to untreated controls and visually evaluated for injury. Plant response ratings, summarized in Table A, are based on a 0 to 100 scale where 0 is no effect and 100 is complete control. A dash (-) response means no test result.

[2] = system: morningglory (Ipomoea spp.)
Text: as §1

[3] = system: wheat (Triticum aestivum)
Text: as §1

corn (Zea mays) = system: corn (Zea mays)
Text: as §1

[4] = system: barnyardgrass (Echinochloa crus-galli)
Text: as §1

[5] = system: giant foxtail (Setaria faberii)
Text: as §1

[6] = system: large (Lg) crabgrass (Digitaria sanguinalis)
Text: as §1

[7] = system: pigweed (Amaranthus retroflexus)
Text: as §1

SMILES | Plant response rating (0 to 100 scale), Velvetleaf ([1]; Postemergence) | Plant response rating (0 to 100 scale), Velvetleaf ([1]; Preemergence) | Plant response rating (0 to 100 scale), Morningglory ([2]; Postemergence) | Plant response rating (0 to 100 scale), Morningglory ([2]; Preemergence) | Plant response rating (0 to 100 scale), Wheat ([3]; Postemergence) | Plant response rating (0 to 100 scale), Wheat ([3]; Preemergence) | Plant response rating (0 to 100 scale), Corn (corn (Zea mays); Postemergence) | Plant response rating (0 to 100 scale), Corn (corn (Zea mays); Preemergence) | Plant response rating (0 to 100 scale), Barnyardgrass ([4]; Postemergence) | Plant response rating (0 to 100 scale), Barnyardgrass ([4]; Preemergence) | Plant response rating (0 to 100 scale), Foxtail, Giant ([5]; Postemergence) | Plant response rating (0 to 100 scale), Foxtail, Giant ([5]; Preemergence) | Plant response rating (0 to 100 scale), Crabgrass, Large ([6]; Postemergence) | Plant response rating (0 to 100 scale), Crabgrass, Large ([6]; Preemergence) | Plant response rating (0 to 100 scale), Pigweed ([7]; Postemergence) | Plant response rating (0 to 100 scale), Pigweed ([7]; Preemergence)
CC(=O)n1cc(C(=O)c2cncc(F)c2)c(-c2cc(Cl)cc(Cl)c2)n1 [Compound 20] | 90 | 80 | 0 | 0 | 0 | 0 | 0 | 0 | 0 | 0 | 0 | 0 | 0 | 0 | 90 | 100
CCn1cc(C(=O)c2cncc(F)c2)c(-c2cc(Cl)cc(Cl)c2)n1 [Compound 21] | 90 | 80 | 0 | 0 | 0 | 0 | 0 | 0 | 0 | 0 | 0 | 0 | 10 | 0 | 100 | 80
CON=C(c1ccccc1)c1c[nH]nc1-c1cc(Br)cc(Br)c1 [Compound 29] | 90 | 70 | 0 | 0 | 0 | 0 | 0 | 0 | 0 | 0 | 10 | 0 | 0 | 0 | 90 | 40

— patent US10167262B2, “Herbicidal substituted 3-arylpyrazoles” (FMC CORPORATION, priority 2014, dated 2019)
